Patent publication US20260076973A1 (priority 2023, published 2026)
Counter-ions that a name gives are not always drawn. Like-named read-outs stand apart in the source and are kept apart here.

System: SARS-CoV-2 (WA1)
Assay: microbe, parasite or virus in culture
Type: cell-based
[1] = Severe acute respiratory syndrome coronavirus 2, Vero C1008, VIRADEM compounds, SARS-CoV-2(WA1) CPE assay, Round 2, concentration range 1000-0.05 nM, Vero E6, read-out: IC50
[2] = VIRADEM compounds, SARS-CoV-2(WA1) CPE assay, Round 2, concentration range 1000-0.05 nM, Vero E6, read-out: IC50
[3] = Severe acute respiratory syndrome coronavirus 2, Vero C1008

Compound	IC50 [1] [nM]	other results
Cc1ccc(N2C(N3CCOCC3)=NC(N)=NC2Nc2cccc(F)c2)cc1 (centres unmarked) [VIRADEM-11785, N-(3-Fluorophenyl)-6-morpholin-4-yl-N^1-p-tolyl-[1,3,5]triazine-2,4-diamine hydrochloride]	170	–
Cc1cccc(N2C(N3CCOCC3)=NC(N)=NC2Nc2cccc(F)c2)c1 (centres unmarked) [VIRADEM-11786, N-(3-Fluorophenyl)-6-morpholin-4-yl-N^1-m-tolyl-[1,3,5]triazine-2,4-diamine hydrochloride]	380	–
Cc1cccc(N2C(N3CCOCC3)=NC(N)=NC2Nc2ccc(F)cc2)c1 (centres unmarked) [VIRADEM-11787, N-(4-Fluorophenyl)-6-morpholin-4-yl-N^1-m-tolyl-[1,3,5]triazine-2,4-diamine hydrochloride]	360	–
CCOc1ccc(NC2N=C(N)N=C(N3CCOCC3)N2c2cccc(C)c2)cc1 (centres unmarked) [VIRADEM-11794, N-(4-Ethoxyphenyl)-6-morpholin-4-yl-N^1-m-tolyl-[1,3,5]triazine-2,4-diamine hydrochloride]	270	–
Cc1ccc(NC2N=C(N)N=C(N3CCCC3)N2c2ccc(F)cc2)cc1C (centres unmarked) [VIRADEM-11809, N-(3,4-Dimethylphenyl)-N^1-(4-fluorophenyl)-6-pyrrolidin-1-yl-[1,3,5]triazine-2,4-diamine hydrochloride]	> 1000	–
CC(=O)c1cccc(Nc2nc(Nc3ccc(Cl)cc3)nc(N3CCOCC3)n2)c1 [VIRADEM-11882, 1-{3-[4-(4-chlorophenylamino)-6-morpholin-4-yl-[1,3,5]triazin-2-ylamino]-phenyl}-ethanone]	120	–
CC(=O)c1cccc(Nc2nc(Nc3ccc(F)cc3)nc(N3CCOCC3)n2)c1 [VIRADEM-11883, 1-{3-[4-(4-Fluorophenylamino)-6-morpholin-4-yl-[1,3,5]triazin-2-ylamino]-phenyl}-ethanone hydrochloride]	> 1000	–
CCOC(=O)c1ccc(Nc2nc(Nc3ccc(C)c(C)c3)nc(N3CCOCC3)n2)cc1 [VIRADEM-11913, 4-[4-(3,4-Dimethylphenylamino)-6-morpholin-4-yl-[1,3,5]-2-ylamino]-benzoic acid ethyl ester]	–	IC50 [2]: 40 nM
Cc1ccc(Nc2nc(Nc3cccc(C(F)(F)F)c3)nc(N3CCOCC3)n2)cc1C [VIRADEM-11914, N-(3,4-Dimethylphenyl)-6-morpholin-4-yl-N^1-(3-trifluoromethylphenyl)-[1,3,5]triazine-2,4-diamine]	–	IC50 [3]: 130 nM
CCCCc1ccc(Nc2nc(Nc3cccc(C(C)=O)c3)nc(N3CCOCC3)n2)cc1 [VIRADEM-12037, 1-{3-[4-(4-Butylphenylamino)-6-morpholin-4-yl-[1,3,5]triazin-2-ylamino]-phenyl}-ethanone]	> 1000	–
CCOc1cccc(N2C(N3CCCC3)=NC(N)=NC2Nc2ccc(C)c(C)c2)c1 (centres unmarked) [VIRADEM-12185, N-(3,4-Dimethylphenyl)-N^1-(3-ethoxyphenyl)-6-pyrrolidin-1-yl-[1,3,5]triazine-2,4-diamine hydrochloride]	> 1000	–
CC(=O)c1cccc(Nc2nc(Nc3cccc(Cl)c3)nc(N3CCOCC3)n2)c1 [VIRADEM-12188, 1-{3-[4-(3-Chlorophenylamino)-6-morpholin-4-yl-[1,3,5]triazin-2-ylamino]-phenyl}-ethanone]	320	–
Cc1cccc(Nc2nc(Nc3ccc(C(C)C)cc3)nc(N3CCOCC3)n2)c1 [VIRADEM-12251, N-(4-Isoproylphenyl)-6-morpholin-4-yl-N^1-m-tolyl-[1,3,5]triazine-2,4-diamine hydrochloride]	–	IC50 [2]: 560 nM
COc1cccc(NC2N=C(N)N=C(N3CCOCC3)N2c2ccccc2)c1 (centres unmarked) [VIRADEM-12252, N-(3-Methoxyphenyl)-6-morpholin-4-yl-N^1-phenyl-[1,3,5]triazine-2,4-diamine hydrochloride]	110	–
Cc1ccc(Nc2nc(Nc3ccc(C(C)C)cc3)nc(N3CCOCC3)n2)cc1 [VIRADEM-12253, N-(4-Isoproylphenyl)-6-morpholin-4-yl-N^1-p-tolyl-[1,3,5]triazine-2,4-diamine hydrochloride]	–	IC50 [2]: 510 nM
COc1ccccc1N1C(N2CCOCC2)=NC(N)=NC1Nc1cc(C)cc(C)c1 (centres unmarked) [VIRADEM-12270, N-(3,5-Dimethylphenyl)-N^1-(2-methoxyphenyl)-6-morpholin-4-yl-[1,3,5]triazine-2,4-diamine hydrochloride]	380	–
Cc1cc(C)cc(N2C(N3CCCC3)=NC(N)=NC2Nc2cccc(Cl)c2)c1 (centres unmarked) [VIRADEM-12278, N-(3-Chlorophenyl)-N^1-(3,5-dimethylphenyl)-6-pyrrolidin-1-yl-[1,3,5]triazine-2,4-diamine hydrochloride]	> 1000	–
Cc1ccc(Nc2nc(Nc3cccc(F)c3)nc(N3CCOCC3)n2)cc1Cl [VIRADEM-12292, N-(3-Chloro-4-methylphenyl)-N^1-(3-fluorophenyl)-6-morpholin-4-yl-[1,3,5]triazine-2,4-diamine]	–	IC50 [3]: 150 nM
CC(=O)c1cccc(Nc2nc(Nc3ccc(C(C)C)cc3)nc(N3CCOCC3)n2)c1 [VIRADEM-12305, 1-{3-[4-(4-Isopropylphenylamino)-6-morpholin-4-yl-[1,3,5]triazin-2-ylamino]-phenyl}-ethanone]	450	–
CC(C)c1ccc(Nc2nc(N3CCCC3)nc(N3CCCC3)n2)cc1 [VIRADEM-12307, (4,6-Dipyrrolidin-1-yl-[1,3,5]triazin-2-yl)-(4-isopropylphenyl)-amine hydrochloride]	> 1000	–
CCc1ccc(Nc2nc(Nc3cc(Cl)cc(Cl)c3)nc(N3CCOCC3)n2)cc1 [VIRADEM-12327, N-(3,5-Dichlorophenyl)-N^1-(4-ethylphenyl)-6-morpholin-4-yl-[1,3,5]triazine-2,4-diamine]	730	–
COC(=O)c1ccc(Nc2nc(Nc3cccc(OC)c3)nc(N3CCOCC3)n2)cc1 [VIRADEM-12329, 4-[4-(3-Methoxyphenylamino)-6-morpholin-4-yl-[1,3,5]triazin-2-ylamino]-benzoic acid methyl ester]	20	–
Cc1ccccc1Nc1nc(N2CCOCC2)nc(N2CCOCC2)n1 [VIRADEM-12434, (4,6-Dimorpholin-4-yl-[1,3,5]triazin-2-yl)-o-tolyl-amine]	> 1000	–
CC(C)c1ccc(Nc2nc(N3CCOCC3)nc(N3CCOCC3)n2)cc1 [VIRADEM-12435, (4,6-Dimorpholin-4-yl-[1,3,5]triazin-2-yl)-(4-isopropylphenyl)-amine]	> 1000	–
CC(C)(C)c1nnc(N2CCOCC2)nc1Nc1ccccc1 [VIRADEM-13044, (6-tert-Butyl-3-morpholin-4-yl-[1,2,4]triazin-5-yl)-phenyl-amine]	> 1000	–
COc1ccc(CC(=O)N(N)c2nc(N3CCOCC3)nc(N3CCOCC3)n2)cc1 [VIRADEM-14302, (4-Methoxyphenyl)-acetic acid N1-(4,6-dimorpholin-4-yl-[1,3,5]triazin-2-yl)-hydrazide]	> 1000	–
Clc1ccccc1Nc1nc(Nc2ccccc2Cl)nc(N2CCOCC2)n1 [VIRADEM-14303, N,N^1-bis-(2-chlorophenyl)-6-morpholin-4-yl-[1,3,5]triazine-2,4-diamine]	–	IC50 [3]: > 1000 nM
C1CCC(Nc2nc(N3CCOCC3)nc(N3CCOCC3)n2)C1 [VIRADEM-14309, Cyclopentyl-(4,6-dimorpholin-4-yl-[1,3,5]triazin-2-yl)-amine]	> 1000	–
Clc1ccc(Oc2nc(N3CCOCC3)nc(N3CCOCC3)n2)cc1 [VIRADEM-15106, 2-(4-Chlorophenoxy)-4,6-dimorpholin-4-yl-[1,3,5]triazine]	> 1000	–
